Measurements from the supplement of paper PMC10307832.

How the values were obtained:
Experiment in all cases: relative viability (nuclei count vs DMSO), 5 days (fraction); higher = more cells survive
Tanzisertib + OSI-027 = compound: O[C@H]1CC[C@H](Nc2ncc3nc(Nc4c(F)cc(F)cc4F)n([C@H]4CCOC4)c3n2)CC1 [Tanzisertib] + COc1cccc2cc(-c3nc([C@H]4CC[C@H](C(=O)O)CC4)n4ncnc(N)c34)[nH]c12 [OSI-027] (partner 0.5 µM)
Method in brief: (§1)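 Values are medians from duplicate plates. Each reflects relative viability, defined as the nuclei count of treated wells over that of vehicle wells. Lung cancer cell lines in 1536-well plates were pin-tool dosed one day after seeding with one drug alone or with a fixed anchor-drug dose plus five library-drug doses (not always all listed) in √10 steps, then fixed, stained and imaged at 4× after 5 days.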

Tanzisertib + Luminespib = compound: O[C@H]1CC[C@H](Nc2ncc3nc(Nc4c(F)cc(F)cc4F)n([C@H]4CCOC4)c3n2)CC1 [Tanzisertib] + CCNC(=O)c1noc(-c2cc(C(C)C)c(O)cc2O)c1-c1ccc(CN2CCOCC2)cc1 [Luminespib] (partner 0.01 µM)
Method in brief: as §1

Tanzisertib + Pemetrexed = compound: O[C@H]1CC[C@H](Nc2ncc3nc(Nc4c(F)cc(F)cc4F)n([C@H]4CCOC4)c3n2)CC1 [Tanzisertib] + Nc1nc2[nH]cc(CCc3ccc(C(=O)N[C@@H](CCC(=O)O)C(=O)O)cc3)c2c(=O)[nH]1 [Pemetrexed] (partner 0.2 µM)
Method in brief: as §1

[1] = compound: C[C@@H](N)c1ccc(C(=O)Nc2ccnc3[nH]ccc23)cc1 + C[C@]1(O)C[C@@H](c2nc(-c3ccc4ccc(-c5ccccc5)nc4c3)c3c(N)nccn32)C1 [Linsitinib] (partner 1 µM)
Method in brief: as §1

Row | Cell Line | relative viability (Tanzisertib + OSI-027; first compound 0.08 µM) | relative viability (Tanzisertib + OSI-027; first compound 0.253 µM) | relative viability (Tanzisertib + OSI-027; first compound 0.8 µM) | relative viability (Tanzisertib + OSI-027; first compound 2.53 µM) | relative viability (Tanzisertib + OSI-027; first compound 8 µM) | relative viability (Tanzisertib + Luminespib; first compound 0.08 µM) | relative viability (Tanzisertib + Luminespib; first compound 0.253 µM) | relative viability (Tanzisertib + Luminespib; first compound 0.8 µM) | relative viability (Tanzisertib + Luminespib; first compound 2.53 µM) | relative viability (Tanzisertib + Luminespib; first compound 8 µM) | relative viability (Tanzisertib + Pemetrexed; first compound 0.08 µM) | relative viability (Tanzisertib + Pemetrexed; first compound 0.253 µM) | relative viability (Tanzisertib + Pemetrexed; first compound 0.8 µM) | relative viability (Tanzisertib + Pemetrexed; first compound 2.53 µM) | relative viability (Tanzisertib + Pemetrexed; first compound 8 µM) | relative viability ([1]; first compound 0.04 µM) | relative viability ([1]; first compound 0.1265 µM) | relative viability ([1]; first compound 0.4 µM) | relative viability ([1]; first compound 1.265 µM) | relative viability ([1]; first compound 4 µM)
1 | NCI-H1666 | 0.877 | 0.869 | 0.944 | 0.834 | 0.786 | 1.01 | 0.924 | 1.05 | 1.19 | 1.18 | 0.894 | 0.789 | 0.865 | 0.941 | 0.796 | 0.849 | 1.04 | 1.01 | 1.12 | 0.966
2 | NCI-H1734 | 0.758 | 0.581 | 0.588 | 0.723 | 0.586 | 0.208 | 0.206 | 0.214 | 0.197 | 0.203 | 0.428 | 0.423 | 0.408 | 0.403 | 0.402 | 0.901 | 0.905 | 0.805 |  | 0.708
3 | NCI-H1755 | 0.747 | 0.77 | 0.676 | 0.706 | 0.517 | 0.415 | 0.51 | 0.473 | 0.374 | 0.547 | 0.368 | 0.451 | 0.565 | 0.408 | 0.404 | 1.03 | 0.977 | 0.947 | 0.86 | 0.716
4 | NCI-H1792 | 0.752 | 0.716 | 0.728 | 0.676 | 0.446 | 0.413 | 0.402 | 0.447 | 0.448 | 0.344 | 1.2 | 0.694 | 0.876 | 0.763 | 0.625 | 0.631 | 0.475 | 0.558 | 0.676 | 0.572
5 | NCI-H1793 | 0.27 | 0.262 | 0.285 | 0.292 | 0.197 | 0.174 | 0.216 | 0.2 | 0.165 | 0.216 | 1.07 | 0.914 | 0.976 | 0.766 | 0.828 | 1.02 | 0.878 | 0.83 |  | 0.787
6 | NCI-H1915 | 0.695 | 0.633 | 0.615 | 0.669 | 0.34 | 0.875 | 0.839 | 0.808 | 0.789 | 0.776 | 0.565 | 0.451 | 0.486 | 0.501 | 0.49 | 1.1 | 1.13 | 1.12 |  | 1.03
7 | NCI-H1944 | 0.4 | 0.393 | 0.426 | 0.389 | 0.338 | 0.858 | 0.84 | 0.749 | 0.658 | 0.73 | 0.733 | 0.589 | 0.686 | 0.678 | 0.554 | 1.28 | 1.16 | 1.17 |  | 0.835
8 | NCI-H1975 | 0.926 | 0.773 | 0.671 | 0.673 | 0.587 | 0.331 | 0.142 | 0.232 | 0.161 | 0.247 | 0.304 | 0.294 | 0.267 | 0.317 | 0.254 | 1.01 | 0.915 | 0.964 | 0.778 | 0.619
9 | NCI-H1993 | 0.604 | 0.578 | 0.485 | 0.498 | 0.59 | 0.879 | 0.783 | 0.915 | 0.714 | 1 | 0.621 | 0.585 | 0.605 | 0.561 | 0.54 | 0.824 | 0.753 |  | 0.834 | 0.663
10 | NCI-H2009 | 0.776 | 0.668 | 0.594 | 0.73 | 0.705 | 1.09 | 1.06 | 1.11 | 1.02 | 1.04 | 1.01 | 1.03 | 0.957 | 1.04 | 1.1 | 1.21 | 1.06 | 1.01 | 0.966 | 0.709
11 | NCI-H2023 | 0.483 | 0.418 | 0.394 | 0.347 | 0.35 | 0.966 | 0.762 | 0.826 | 0.628 | 0.696 | 0.287 | 0.222 | 0.215 | 0.202 | 0.205 | 0.734 | 0.691 | 0.724 | 0.798 | 0.663
12 | NCI-H2085 | 0.937 | 0.666 | 0.804 | 0.705 | 0.515 | 0.525 | 0.406 | 0.443 | 0.459 | 0.457 |  | 0.934 | 0.942 | 0.841 | 0.765 | 1.02 | 0.907 | 0.905 | 0.868 | 0.777
13 | NCI-H2087 | 0.564 | 0.578 | 0.712 | 0.521 | 0.338 | 0.182 | 0.2 | 0.166 | 0.21 | 0.168 | 0.702 | 0.661 | 0.668 | 0.691 | 0.706 | 1 | 0.823 | 0.916 | 0.824 | 0.478
14 | NCI-H2126 | 0.8 | 0.723 | 0.742 | 0.614 | 0.548 | 0.919 | 0.897 | 0.887 | 0.961 | 0.993 | 0.674 | 0.69 | 0.728 | 0.723 | 0.515 | 0.726 | 0.72 | 0.805 | 0.705 | 0.781
15 | NCI-H2228 | 0.822 | 0.633 | 0.616 | 0.499 | 0.379 | 0.2 | 0.188 | 0.173 | 0.162 | 0.132 | 0.371 | 0.288 | 0.378 | 0.355 | 0.348 | 0.63 | 0.587 | 0.62 | 0.637 | 0.82
16 | NCI-H2347 | 0.447 |  | 0.46 | 0.42 | 0.407 | 0.494 |  | 0.581 | 0.571 | 0.511 | 0.454 | 0.468 | 0.435 | 0.408 | 0.442 | 0.937 | 0.868 | 1.02 | 1.02 | 0.8
